Measured values taken from patent publication EP0292170A2, “Enzyme immunoassay” (Bayer Corporation, priority 1987, dated 1988).

System: antibody to phenytoin
Assay: Immunoreactivity: conjugate activity in the phosphorylase kinase reaction mixture in the presence of monoclonal antibody to phenytoin
Type: biochemical
Settings: same reaction mixture, antibody added

For `Nc1ncnc2c1ncn2[C@@H]1O[C@H](COP(=O)(O)OP(=O)(O)OP(=O)(O)O)[C@@H](O)[C@H]1O` [ATP, adenosine triphosphate], the “inhibition of activity by antibody” value was “No inhibition”.
